Entries after “also recorded” stand apart in the source; their conditions may differ. Where two headings read alike, the source gives them in different places.
Tests used:
[1] = Hydrolysis of prodrug into acting drug (rebamipide) in whole blood of rat, HPLC; format: in vitro ADME; settings: for half-life at 0.196 mg/mL: half life of conversion from prodrug to rebamipide, read-out: Conversion Time in Whole Rat Blood (t1/2)
Experimental: Frozen rat blood was thawed for about 1 hr in a 37° C. water bath and homogenized.
A stock solution was prepared by dissolving 10 mg of the compound of each Example in 1 mL of CAN. Optionally, a buffer (prepared by mixing 750 mL of a solution of Na2HPO4 0.58 g and KH2PO4 2 g in 1 L of H2O with 250 mL of CAN) was added. In a 4 mL tube, 40 μL of the stock solution was uniformly mixed with 2 mL of blood by shaking, followed by storage at 30 rpm in a water bath.
At 0, 2, 4, 6, 8, 10, 15, 30, 45, 60, 90, and 120 min after storage, a sample was taken in a volume of 200 μL, diluted in 400 μL of CAN, vortexed for 1 min, and centrifuged for 1 min. The supernatant was analyzed by HPLC (but, for the compound of Example 47, sampling was performed at 0, 1, 3, 5, 7, and 10 min after storage). In addition, measurement was made of the time that it took for the prodrugs to be converted into the acting drug (rebamipide).

[2] = due to low solubility and low intestinal permeability; cited from earlier work
[3] = in vivo; cited from earlier work
[4] = cited from earlier work
[5] = system: acetic acid-induced gastric ulcers; settings: rats; cited from earlier work

SMILES	half-life at 0.196 mg/mL [1] [min]	also measured
CCC(OC(=O)C(Cc1cc(=O)[nH]c2ccccc12)NC(=O)c1ccc(Cl)cc1)C(=O)OCCN1CCOCC1 (stereo not drawn) [Example 106, 2-Morpholin-4-ylethyl 2-[2-(4-chlorobenzoylamino)-3-(2-oxo-1,2-dihydroquinolin-4-yl)propionyloxy]butyrate]	< 2	
CCC(OC(=O)C(Cc1cc(=O)[nH]c2ccccc12)NC(=O)c1ccc(Cl)cc1)C(=O)N1CCN(C)CC1 (stereo not drawn) [Example 100, 1-(4-Methylpiperazine-1-carbonyl)propyl 2-(4-chlorobenzoylamino)-3-(2-oxo-1,2-dihydroquinolin-4-yl)propionate]	< 2	
O=C(COC(=O)C(Cc1cc(=O)[nH]c2ccccc12)NC(=O)c1ccc(Cl)cc1)OCCN1CCOCC1 (stereo not drawn) [Example 105, 2-Morpholin-4-yl-ethoxycarbonylmethyl 2-(4-chlorobenzoylamino)-3-(2-oxo-1,2-dihydroquinolin-4-yl)propionate]	< 2	
O=C(OCCN1CCOCC1)OCOC(=O)C(Cc1cc(=O)[nH]c2ccccc12)NC(=O)c1ccc(Cl)cc1 (stereo not drawn) [Example 109, 2-Morpholin-4-yl-ethoxycarbonyloxymethyl 2-(4-chlorobenzoylamino)-3-(2-oxo-1,2-dihydroquinolin-4-yl)propionate]	< 2	
O=C(NC(Cc1cc(=O)[nH]c2ccccc12)C(=O)O)c1ccc(Cl)cc1 (stereo not drawn) [Rebamipide]		BCS class [2]: Class IV; bioavailability [3]: around 5%; aqueous solubility ([4]; pH 3): approximately 0.0001 % (w/v); aqueous solubility ([4]; pH 7): approximately 0.013 % (w/v); solubility in solvents (in words) ([4]; solvent named in the value): freely soluble in dimethylformamide; also recorded: slightly soluble in methanol and ethanol; also recorded: almost insoluble in ether and water; effect on ulcer size, relapse rate and cure rate [5]: reduces sizes and relapse rates of the ulcer while improving the cure rate
O=C(NC(Cc1cc(=O)[nH]c2ccccc12)C(=O)SCCN1CCOCC1)c1ccc(Cl)cc1 (stereo not drawn) [Example 151, S-(2-Morpholin-4-yl)ethyl 2-(4-chlorobenzoylamino)-3-(2-oxo-1,2-dihydroquinolin-4-yl)propionate]	< 2	
O=C(NC(Cc1cc(=O)[nH]c2ccccc12)C(=O)SCCN1CCCC1)c1ccc(Cl)cc1 (stereo not drawn) [Example 144, S-(2-Pyrrolidin-1-yl)ethyl 2-(4-chlorobenzoylamino)-3-(2-oxo-1,2-dihydroquinolin-4-yl)thiopropionate]	< 2	

Second part, led by results:

half-life at 0.196 mg/mL [1] [min]	SMILES	also measured
< 2	Cc1oc(=O)oc1CSC(=O)C(Cc1cc(=O)[nH]c2ccccc12)NC(=O)c1ccc(Cl)cc1 (stereo not drawn) [Example 155, S-(5-Methyl-2-oxo-[1,3]dioxol-4-yl)methyl 2-(4-chlorobenzoylamino)-3-(2-oxo-1,2-dihydroquinolin-4-yl)thiopropionate]	
< 2	O=C(NC(Cc1cc(=O)[nH]c2ccccc12)C(=O)OCCN1CCCCC1)c1ccc(Cl)cc1 (stereo not drawn) [Example 44, 2-Piperidin-1-ylethyl 2-(4-chlorobenzoylamino)-3-(2-oxo-1,2-dihydroquinolin-4-yl)propionate]	
< 2	CN1CCN(C(=O)COC(=O)C(Cc2cc(=O)[nH]c3ccccc23)NC(=O)c2ccc(Cl)cc2)CC1 (stereo not drawn) [Example 99, 2-(4-Methylpiperazin-1-yl)-2-oxoethyl 2-(4-chlorobenzoylamino)-3-(2-oxo-1,2-dihydroquinolin-4-yl)propionate]	
< 2	CCN(CC)CCOC(=O)C(Cc1cc(=O)[nH]c2ccccc12)NC(=O)c1ccc(Cl)cc1 (stereo not drawn) [Example 16, 2-Diethylaminoethyl 2-(4-chlorobenzoylamino)-3-(2-oxo-1,2-dihydroquinolin-4-yl)propionate]	
< 2	CON(C)C(=O)COC(=O)C(Cc1cc(=O)[nH]c2ccccc12)NC(=O)c1ccc(Cl)cc1 (stereo not drawn) [Example 102, (Methoxymethylcarbamoyl)methyl 2-(4-chlorobenzoylamino)-3-(2-oxo-1,2-dihydroquinolin-4-yl)propionate]	
< 2	CN(C)CCOC(=O)C(Cc1cc(=O)[nH]c2ccccc12)NC(=O)c1ccc(Cl)cc1 (stereo not drawn) [Example 14, 2-Dimethylaminoethyl 2-(4-chlorobenzoylamino)-3-(2-oxo-1,2-dihydroquinolin-4-yl)propionate]	
< 2	CCN(CC)CCSC(=O)C(Cc1cc(=O)[nH]c2ccccc12)NC(=O)c1ccc(Cl)cc1 (stereo not drawn) [Example 121, S-(2-Diethylamino)ethyl 2-(4-chlorobenzoylamino)-3-(2-oxo-1,2-dihydroquinolin-4-yl)thiopropionate]	
2.57	O=C(NC(Cc1cc(=O)[nH]c2ccccc12)C(=O)OCCN1CCOCC1)c1ccc(Cl)cc1 (stereo not drawn) [Example 47, 2-Morpholin-4-ylethyl 2-(4-chlorobenzoylamino)-3-(2-oxo-1,2-dihydroquinolin-4-yl)propionate]	time to complete conversion into rebamipide ([1]; FIG. 1): about 10 min
